Tests used:
D(1A) dopamine receptor = D(1A) dopamine receptor (Homo sapiens, UniProt P21728)
[1] = target: T1, Alpha-1A adrenergic receptor (Homo sapiens, UniProt P35348)
T1 sequence (P35348 whole entry): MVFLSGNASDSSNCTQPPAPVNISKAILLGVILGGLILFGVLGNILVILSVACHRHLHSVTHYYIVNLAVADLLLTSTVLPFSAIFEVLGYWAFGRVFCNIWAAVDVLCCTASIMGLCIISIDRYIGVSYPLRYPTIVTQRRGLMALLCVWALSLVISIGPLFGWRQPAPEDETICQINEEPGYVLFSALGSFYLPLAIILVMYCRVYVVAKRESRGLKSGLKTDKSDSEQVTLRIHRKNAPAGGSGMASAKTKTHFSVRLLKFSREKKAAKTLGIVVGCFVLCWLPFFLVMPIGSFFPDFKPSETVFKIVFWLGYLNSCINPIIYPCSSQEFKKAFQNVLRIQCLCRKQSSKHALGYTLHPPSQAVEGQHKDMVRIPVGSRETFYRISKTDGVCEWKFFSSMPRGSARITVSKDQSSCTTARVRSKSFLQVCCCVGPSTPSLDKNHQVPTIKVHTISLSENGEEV

[2] = target: Voltage-dependent N-type calcium channel subunit alpha-1B (Rattus norvegicus, UniProt Q02294); assay type: functional
Voltage-dependent N-type calcium channel subunit alpha-1B, sequence (Q02294 whole entry): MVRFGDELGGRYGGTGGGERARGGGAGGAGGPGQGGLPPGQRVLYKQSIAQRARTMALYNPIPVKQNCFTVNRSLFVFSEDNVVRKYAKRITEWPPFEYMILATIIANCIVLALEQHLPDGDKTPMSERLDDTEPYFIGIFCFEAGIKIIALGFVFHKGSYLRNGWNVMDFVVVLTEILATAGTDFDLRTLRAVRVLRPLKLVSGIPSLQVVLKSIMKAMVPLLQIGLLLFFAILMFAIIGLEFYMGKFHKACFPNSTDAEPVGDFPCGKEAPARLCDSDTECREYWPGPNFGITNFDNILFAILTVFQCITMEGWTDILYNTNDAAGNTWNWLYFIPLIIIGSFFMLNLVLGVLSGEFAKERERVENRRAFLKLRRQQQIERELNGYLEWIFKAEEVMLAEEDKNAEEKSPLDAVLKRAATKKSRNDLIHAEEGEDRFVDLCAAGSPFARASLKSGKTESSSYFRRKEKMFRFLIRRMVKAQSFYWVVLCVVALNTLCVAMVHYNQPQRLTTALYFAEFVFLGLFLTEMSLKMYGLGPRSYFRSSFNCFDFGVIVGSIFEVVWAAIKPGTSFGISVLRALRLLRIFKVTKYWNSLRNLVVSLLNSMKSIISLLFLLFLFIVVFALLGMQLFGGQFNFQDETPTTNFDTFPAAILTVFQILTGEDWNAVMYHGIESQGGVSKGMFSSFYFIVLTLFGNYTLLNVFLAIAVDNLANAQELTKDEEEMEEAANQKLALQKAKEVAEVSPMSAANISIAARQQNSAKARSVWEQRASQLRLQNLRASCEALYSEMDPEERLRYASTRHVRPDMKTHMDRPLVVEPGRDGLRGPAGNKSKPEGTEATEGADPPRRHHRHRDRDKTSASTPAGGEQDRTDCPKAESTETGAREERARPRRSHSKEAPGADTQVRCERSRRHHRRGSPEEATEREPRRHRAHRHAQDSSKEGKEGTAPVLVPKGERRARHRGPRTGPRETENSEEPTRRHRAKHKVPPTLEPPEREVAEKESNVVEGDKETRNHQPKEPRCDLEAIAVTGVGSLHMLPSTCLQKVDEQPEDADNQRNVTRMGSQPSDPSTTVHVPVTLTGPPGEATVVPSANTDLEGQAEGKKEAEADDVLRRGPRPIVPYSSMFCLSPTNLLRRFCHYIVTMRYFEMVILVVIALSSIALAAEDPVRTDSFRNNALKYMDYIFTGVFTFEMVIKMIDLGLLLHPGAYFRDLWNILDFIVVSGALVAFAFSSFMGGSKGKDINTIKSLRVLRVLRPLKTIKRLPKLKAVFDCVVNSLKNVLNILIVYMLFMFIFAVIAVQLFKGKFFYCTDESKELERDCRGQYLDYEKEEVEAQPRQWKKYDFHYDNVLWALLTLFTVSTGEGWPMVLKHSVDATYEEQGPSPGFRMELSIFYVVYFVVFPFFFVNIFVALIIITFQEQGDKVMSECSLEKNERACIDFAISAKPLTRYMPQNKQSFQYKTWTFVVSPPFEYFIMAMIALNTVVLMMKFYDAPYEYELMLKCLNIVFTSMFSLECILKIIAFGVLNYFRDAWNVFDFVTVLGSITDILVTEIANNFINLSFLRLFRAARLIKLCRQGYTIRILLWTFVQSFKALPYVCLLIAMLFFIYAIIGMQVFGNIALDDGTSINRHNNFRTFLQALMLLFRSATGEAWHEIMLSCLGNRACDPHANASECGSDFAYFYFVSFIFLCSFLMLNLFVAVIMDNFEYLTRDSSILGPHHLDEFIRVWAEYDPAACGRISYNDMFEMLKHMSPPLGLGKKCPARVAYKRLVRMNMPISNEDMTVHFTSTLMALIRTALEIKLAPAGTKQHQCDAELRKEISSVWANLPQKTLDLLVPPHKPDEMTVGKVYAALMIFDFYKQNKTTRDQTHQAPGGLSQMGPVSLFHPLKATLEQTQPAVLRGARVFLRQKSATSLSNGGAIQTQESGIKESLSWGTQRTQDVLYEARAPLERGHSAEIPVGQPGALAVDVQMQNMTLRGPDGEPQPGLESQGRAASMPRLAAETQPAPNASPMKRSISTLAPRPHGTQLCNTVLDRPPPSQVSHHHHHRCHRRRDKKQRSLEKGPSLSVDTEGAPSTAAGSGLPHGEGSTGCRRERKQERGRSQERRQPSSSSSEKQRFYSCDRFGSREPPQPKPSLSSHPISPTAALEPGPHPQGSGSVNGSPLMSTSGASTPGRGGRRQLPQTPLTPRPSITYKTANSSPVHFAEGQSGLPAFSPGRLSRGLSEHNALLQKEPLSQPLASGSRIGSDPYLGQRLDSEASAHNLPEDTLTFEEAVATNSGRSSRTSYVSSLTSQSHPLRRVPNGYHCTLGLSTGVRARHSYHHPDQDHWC

[3] = target: Neurotensin receptor type 1 (Homo sapiens, UniProt P30989)
Neurotensin receptor type 1, sequence (P30989 whole entry): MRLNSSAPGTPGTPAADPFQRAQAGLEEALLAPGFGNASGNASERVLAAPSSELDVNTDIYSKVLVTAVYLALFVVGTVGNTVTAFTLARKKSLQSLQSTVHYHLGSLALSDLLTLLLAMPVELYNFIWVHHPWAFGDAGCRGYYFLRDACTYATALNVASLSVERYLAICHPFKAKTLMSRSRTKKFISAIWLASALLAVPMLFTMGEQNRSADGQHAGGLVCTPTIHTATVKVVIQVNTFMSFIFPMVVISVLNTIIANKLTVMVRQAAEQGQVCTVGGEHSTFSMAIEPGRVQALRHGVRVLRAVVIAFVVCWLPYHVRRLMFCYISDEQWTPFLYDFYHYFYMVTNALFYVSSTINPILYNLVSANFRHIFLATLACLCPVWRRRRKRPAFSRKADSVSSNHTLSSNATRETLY

B1 bradykinin receptor = target: T2, B1 bradykinin receptor (Homo sapiens, UniProt P46663)
T2 sequence (P46663 whole entry): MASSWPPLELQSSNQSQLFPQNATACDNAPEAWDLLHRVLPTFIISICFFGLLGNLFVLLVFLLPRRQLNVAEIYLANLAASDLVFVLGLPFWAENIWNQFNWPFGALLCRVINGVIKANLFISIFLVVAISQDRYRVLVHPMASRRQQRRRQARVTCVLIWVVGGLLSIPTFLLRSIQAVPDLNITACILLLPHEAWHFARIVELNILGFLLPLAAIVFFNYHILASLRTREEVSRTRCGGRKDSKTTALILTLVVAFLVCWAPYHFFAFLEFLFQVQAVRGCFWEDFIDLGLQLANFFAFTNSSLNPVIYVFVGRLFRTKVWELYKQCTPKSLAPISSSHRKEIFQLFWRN

Histamine H2 receptor = Histamine H2 receptor (Homo sapiens, UniProt P25021)
Histamine H2 receptor, sequence (P25021 whole entry): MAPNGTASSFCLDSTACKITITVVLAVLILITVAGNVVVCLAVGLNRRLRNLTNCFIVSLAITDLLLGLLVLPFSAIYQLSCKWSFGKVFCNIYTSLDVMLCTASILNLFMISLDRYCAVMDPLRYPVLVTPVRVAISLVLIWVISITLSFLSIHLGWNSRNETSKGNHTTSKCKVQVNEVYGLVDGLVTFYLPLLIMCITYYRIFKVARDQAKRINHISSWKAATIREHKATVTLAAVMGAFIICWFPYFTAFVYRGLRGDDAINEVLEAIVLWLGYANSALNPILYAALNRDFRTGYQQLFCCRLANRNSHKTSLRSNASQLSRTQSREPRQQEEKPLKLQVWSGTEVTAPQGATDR

[4] = target: T3, Alpha-2A adrenergic receptor (Homo sapiens, UniProt P08913)
T3 sequence (P08913 whole entry): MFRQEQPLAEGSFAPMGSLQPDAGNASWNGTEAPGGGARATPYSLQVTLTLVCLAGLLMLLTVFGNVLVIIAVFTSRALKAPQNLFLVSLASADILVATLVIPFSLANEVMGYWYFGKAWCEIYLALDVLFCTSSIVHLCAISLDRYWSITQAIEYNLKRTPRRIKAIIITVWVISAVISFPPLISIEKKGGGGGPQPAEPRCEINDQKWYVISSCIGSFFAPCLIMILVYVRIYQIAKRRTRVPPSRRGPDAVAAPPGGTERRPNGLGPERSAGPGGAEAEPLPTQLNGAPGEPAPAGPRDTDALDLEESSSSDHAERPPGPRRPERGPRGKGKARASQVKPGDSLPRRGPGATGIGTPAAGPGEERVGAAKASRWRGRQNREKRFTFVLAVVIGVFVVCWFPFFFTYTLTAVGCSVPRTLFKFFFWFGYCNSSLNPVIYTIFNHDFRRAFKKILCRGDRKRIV

[5] = target: 5-hydroxytryptamine receptor 2B (Homo sapiens, UniProt P41595)
5-hydroxytryptamine receptor 2B, sequence (P41595 whole entry): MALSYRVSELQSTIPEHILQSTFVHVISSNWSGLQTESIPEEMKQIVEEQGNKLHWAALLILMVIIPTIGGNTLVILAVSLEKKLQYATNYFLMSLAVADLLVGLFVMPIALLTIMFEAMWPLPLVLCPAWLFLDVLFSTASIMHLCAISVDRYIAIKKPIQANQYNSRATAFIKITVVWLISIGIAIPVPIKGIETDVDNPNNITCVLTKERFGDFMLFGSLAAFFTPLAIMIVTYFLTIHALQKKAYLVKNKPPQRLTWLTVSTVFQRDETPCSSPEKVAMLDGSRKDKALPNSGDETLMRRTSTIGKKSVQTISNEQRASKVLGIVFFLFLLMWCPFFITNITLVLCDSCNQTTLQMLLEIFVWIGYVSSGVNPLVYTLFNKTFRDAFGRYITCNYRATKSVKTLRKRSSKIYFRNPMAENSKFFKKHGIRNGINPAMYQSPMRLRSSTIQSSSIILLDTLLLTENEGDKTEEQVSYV

[6] = target: T1, Alpha-1A adrenergic receptor; remark: listed apart in the source
Progesterone receptor = target: T4, Progesterone receptor (Homo sapiens, UniProt P06401)
T4 sequence (P06401 whole entry): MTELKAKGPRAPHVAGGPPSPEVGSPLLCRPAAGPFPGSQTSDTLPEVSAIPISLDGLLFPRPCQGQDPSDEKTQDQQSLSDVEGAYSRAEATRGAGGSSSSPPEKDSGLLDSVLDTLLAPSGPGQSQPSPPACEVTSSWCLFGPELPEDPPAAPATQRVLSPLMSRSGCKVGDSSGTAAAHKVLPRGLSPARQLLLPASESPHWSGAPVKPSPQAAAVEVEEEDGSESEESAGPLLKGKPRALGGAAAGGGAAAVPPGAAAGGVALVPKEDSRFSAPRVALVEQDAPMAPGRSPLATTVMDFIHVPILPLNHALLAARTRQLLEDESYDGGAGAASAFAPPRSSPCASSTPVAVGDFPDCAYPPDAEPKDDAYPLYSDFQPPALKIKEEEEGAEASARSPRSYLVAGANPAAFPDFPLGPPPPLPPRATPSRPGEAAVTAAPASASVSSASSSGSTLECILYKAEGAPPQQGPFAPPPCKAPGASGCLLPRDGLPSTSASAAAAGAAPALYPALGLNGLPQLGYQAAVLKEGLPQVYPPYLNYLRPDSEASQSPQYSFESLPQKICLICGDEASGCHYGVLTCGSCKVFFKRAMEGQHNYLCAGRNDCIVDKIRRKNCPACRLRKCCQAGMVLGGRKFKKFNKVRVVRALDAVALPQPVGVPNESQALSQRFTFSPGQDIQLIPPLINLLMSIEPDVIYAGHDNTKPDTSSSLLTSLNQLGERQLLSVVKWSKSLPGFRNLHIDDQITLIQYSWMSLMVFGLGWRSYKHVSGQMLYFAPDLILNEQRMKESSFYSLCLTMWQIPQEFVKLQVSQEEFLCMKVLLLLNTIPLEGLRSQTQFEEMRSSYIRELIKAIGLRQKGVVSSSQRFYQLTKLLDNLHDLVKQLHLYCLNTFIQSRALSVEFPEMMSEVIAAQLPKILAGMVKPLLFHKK
Also: assay procedure not described here.

D(1A) dopamine receptor, sequence (P21728 whole entry): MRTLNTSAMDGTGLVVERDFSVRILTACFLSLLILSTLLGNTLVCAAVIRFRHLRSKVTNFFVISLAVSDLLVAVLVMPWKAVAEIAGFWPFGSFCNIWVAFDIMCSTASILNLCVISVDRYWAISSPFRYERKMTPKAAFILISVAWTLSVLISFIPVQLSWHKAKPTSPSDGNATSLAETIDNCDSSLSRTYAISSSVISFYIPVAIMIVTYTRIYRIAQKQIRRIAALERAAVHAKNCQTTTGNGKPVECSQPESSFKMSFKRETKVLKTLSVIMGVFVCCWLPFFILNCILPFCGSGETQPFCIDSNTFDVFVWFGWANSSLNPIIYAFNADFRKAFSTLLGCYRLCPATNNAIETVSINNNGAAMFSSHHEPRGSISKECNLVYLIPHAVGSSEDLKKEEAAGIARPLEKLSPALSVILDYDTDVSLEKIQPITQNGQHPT

CCCCCCCC(=O)N[C@H](CN1CCCC1)[C@H](O)c1ccc2c(c1)OCCO2
AC50 (D(1A) dopamine receptor): > 30 µM
AC50 [1]: > 30 µM

C[C@]1(COc2ccc(N3CCC(Oc4ccc(OC(F)(F)F)cc4)CC3)cc2)Cn2cc([N+](=O)[O-])nc2O1
AC50 [2]: > 10 µM
AC50 [3]: > 30 µM
AC50 (B1 bradykinin receptor): > 30 µM
AC50 (Histamine H2 receptor): > 10 µM
AC50 [4]: > 10 µM
AC50 [5]: > 10 µM
AC50 [6]: > 10 µM
AC50 (Progesterone receptor): > 30 µM

C[C@]12CC[C@H](O)CC1=CC[C@@H]1[C@@H]2CC[C@]2(C)C(c3cccnc3)=CC[C@@H]12 [ABIRATERONE]
AC50 (Progesterone receptor): > 30 µM

CC(=O)OCC[N+](C)(C)C [ACETYLCHOLINE]
AC50 [2]: > 10 µM
AC50 [3]: > 30 µM
AC50 (B1 bradykinin receptor): > 30 µM
AC50 (Histamine H2 receptor): > 10 µM
AC50 [4]: > 10 µM
AC50 [5]: > 10 µM
AC50 [6]: > 10 µM
AC50 (Progesterone receptor): > 30 µM

O=C(Nc1nc(-c2cc(Cl)cs2)c(N2CCN(C3CCCCC3)CC2)s1)c1cnc(N2CCC(C(=O)O)CC2)c(Cl)c1 [AVATROMBOPAG]
AC50 [2]: > 10 µM
AC50 [3]: > 10 µM
AC50 (B1 bradykinin receptor): > 10 µM
AC50 (D(1A) dopamine receptor): > 30 µM
AC50 (Histamine H2 receptor): > 10 µM
AC50 [1]: > 30 µM
AC50 [4]: > 10 µM
AC50 [5]: > 10 µM
AC50 [6]: > 10 µM

C[C@H]1C[C@H]2[C@@H]3CCC4=CC(=O)C=C[C@]4(C)[C@@]3(Cl)[C@@H](O)C[C@]2(C)[C@@]1(O)C(=O)CO [BECLOMETHASONE]
AC50 [2]: > 10 µM
AC50 [3]: > 30 µM
AC50 (B1 bradykinin receptor): > 30 µM
AC50 (Histamine H2 receptor): > 10 µM
AC50 [4]: > 10 µM
AC50 [5]: > 10 µM
AC50 [6]: > 10 µM
AC50 (Progesterone receptor): > 30 µM

CO[C@@]1(NC(=O)CSCC#N)C(=O)N2C(C(=O)O)=C(CSc3nnnn3C)CS[C@@H]21 [CEFMETAZOLE]
AC50 (D(1A) dopamine receptor): > 30 µM
AC50 [1]: > 30 µM

Oc1c(I)cc(Cl)c2cccnc12 [CLIOQUINOL]
AC50 (D(1A) dopamine receptor): > 30 µM
AC50 [1]: > 30 µM

COc1ccc2c(c1)[C@]13CCCC[C@@H]1[C@H](C2)N(C)CC3 [DEXTROMETHORPHAN]
AC50 [2]: > 10 µM
AC50 [3]: > 30 µM
AC50 (B1 bradykinin receptor): > 30 µM
AC50 (Histamine H2 receptor): > 10 µM
AC50 [4]: 11.2 µM
AC50 [5]: 5.8 µM
AC50 [6]: 5.22 µM
AC50 (Progesterone receptor): > 30 µM

CCn1cc(C(=O)O)c(=O)c2cc(F)c(N3CCNCC3)nc21 [ENOXACIN]
AC50 [2]: > 10 µM
AC50 [3]: > 30 µM
AC50 (B1 bradykinin receptor): > 30 µM
AC50 (Histamine H2 receptor): > 10 µM
AC50 [4]: > 10 µM
AC50 [5]: > 10 µM
AC50 [6]: > 10 µM
AC50 (Progesterone receptor): > 30 µM

CCC(=O)O[C@@H]1CC(=O)O[C@H](C)C/C=C/C=C/[C@H](OC(C)=O)[C@H](C)C[C@H](CC=O)[C@H](O[C@@H]2O[C@H](C)[C@@H](O[C@H]3C[C@@](C)(OC(C)=O)[C@@H](OC(=O)CC)[C@H](C)O3)[C@H](N(C)C)[C@H]2O)[C@H]1OC [MIOCAMYCIN]
AC50 (D(1A) dopamine receptor): > 30 µM
AC50 [1]: > 30 µM

C1CNCCN1 [PIPERAZINE]
AC50 (D(1A) dopamine receptor): > 30 µM
AC50 [1]: > 30 µM

COCCCOc1ccnc(C[S+]([O-])c2nc3ccccc3[nH]2)c1C (stereo unspecified) [RABEPRAZOLE]
AC50 [2]: > 10 µM
AC50 [3]: > 30 µM
AC50 (B1 bradykinin receptor): > 30 µM
AC50 (Histamine H2 receptor): > 10 µM
AC50 [4]: > 10 µM
AC50 [5]: > 10 µM
AC50 [6]: 4.98 µM
AC50 (Progesterone receptor): > 30 µM

O=C(CCCN1CCC2(CC1)C(=O)NCN2c1ccccc1)c1ccc(F)cc1 [SPIPERONE]
AC50 [5]: 0.66 µM

OCCN1CCN(CC/C=C2/c3ccccc3Sc3ccc(Cl)cc32)CC1 [ZUCLOPENTHIXOL]
AC50 [4]: 7.34 µM
AC50 [5]: 0.0144 µM
